# In ChEMBL document CHEMBL1201862, “PubChem BioAssay data set” (2004):
#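 1) Cells in 96-well plates. 2) Compound, 48 h, 5 concentrations. 3) Linear interpolation between surrounding doses. 4) Unreached endpoint = highest concentration. The concentration for 50% growth inhibition is given as GI50.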 Active and inactive are the calls of the source. No stated cut-off is given here; in the data, active = GI50 up to about 1.1 µM and inactive = higher.
# Columns and labels:
# Experiment in all cases: DTP human tumour cell line panel, 48 h
# SF-539 = system: SF-539
# SNB-75 = system: SNB-75
# Malme-3M = system: Malme-3M
# U-251 = system: U-251
# KM12 = system: KM12
# ACHN = system: ACHN
# SK-MEL-5 = system: SK-MEL-5
# 786-0 = system: 786-0
# SF-268 = system: SF-268
# HOP-92 = system: HOP-92
# HCT-15 = system: HCT-15
# OVCAR-5 = system: OVCAR-5
# HCT-116 = system: HCT-116
# M14 = system: M14
# HL-60 = system: HL-60
# SF-295 = system: SF-295
SMILES,GI50 (SF-539),GI50 (SNB-75),GI50 (Malme-3M),GI50 (U-251),GI50 (KM12),GI50 (ACHN),GI50 (SK-MEL-5),GI50 (786-0),GI50 (SF-268),GI50 (HOP-92),GI50 (HCT-15),GI50 (OVCAR-5),GI50 (HCT-116),GI50 (M14),GI50 (HL-60),GI50 (SF-295)
O=C(N/C(=C\c1ccc([N+](=O)[O-])cc1)c1nc2ccccc2s1)c1ccccc1,23.6 µM (inactive),26.7 µM (inactive),> 100 µM (inactive),31.6 µM (inactive),22.5 µM (inactive),29.2 µM (inactive),25.7 µM (inactive),18 µM (inactive),20.1 µM (inactive),23.6 µM (inactive),27.2 µM,54.7 µM (inactive),27 µM (inactive),31.9 µM (inactive),–,–
NN/C(Cc1ccccc1)=N/NC(N)=S,> 100 µM (inactive),> 100 µM (inactive),> 100 µM (inactive),> 100 µM (inactive),96.4 µM (inactive),62.5 µM (inactive),–,> 100 µM (inactive),> 100 µM (inactive),> 100 µM (inactive),72.6 µM,> 100 µM (inactive),–,> 100 µM (inactive),63 µM (inactive),> 100 µM (inactive)
Cc1nn(-c2ccccc2)c(S)c1C(=O)c1ccccc1,40.7 µM (inactive),42.8 µM (inactive),> 100 µM (inactive),> 100 µM (inactive),33 µM (inactive),39.9 µM (inactive),28.8 µM (inactive),–,51.1 µM (inactive),–,34.6 µM,62.2 µM (inactive),–,31.1 µM (inactive),32.1 µM (inactive),35.2 µM (inactive)
CCOC(=O)/C(O)=C(/C(=O)OC)c1ccc(Cl)cc1,> 100 µM (inactive),> 100 µM (inactive),> 100 µM (inactive),> 100 µM (inactive),> 100 µM (inactive),> 100 µM (inactive),> 100 µM (inactive),> 100 µM (inactive),> 100 µM (inactive),–,> 100 µM,> 100 µM (inactive),–,> 100 µM (inactive),–,> 100 µM (inactive)
Cc1ccccc1C1SCc2nc3ccccc3n21 (stereo not given),70.1 µM (inactive),> 100 µM (inactive),44.9 µM (inactive),> 100 µM (inactive),> 100 µM (inactive),> 100 µM (inactive),5.19 µM (inactive),> 100 µM (inactive),> 100 µM (inactive),2.43 µM (inactive),–,3.38 µM (inactive),4.72 µM (inactive),–,1.92 µM (inactive),48.9 µM (inactive)
O=C(CC1C(=O)c2ccccc2C1=C1C(=O)c2ccccc2C1=O)c1ccccc1 (stereo not given),> 100 µM (inactive),> 100 µM (inactive),> 100 µM (inactive),> 100 µM (inactive),> 100 µM (inactive),80.4 µM (inactive),> 100 µM (inactive),50.6 µM (inactive),> 100 µM (inactive),74.3 µM (inactive),64.4 µM,> 100 µM (inactive),–,> 100 µM (inactive),44.6 µM (inactive),> 100 µM (inactive)
CC12Oc3ccc4ccccc4c3CC1Cc1c(ccc3ccccc13)O2 (stereo not given),60.4 µM (inactive),7.08 µM (inactive),3.44 µM (inactive),50.6 µM (inactive),> 100 µM (inactive),> 100 µM (inactive),–,40.2 µM (inactive),> 100 µM (inactive),0.124 µM (active),–,> 100 µM (inactive),> 100 µM (inactive),38.9 µM (inactive),> 100 µM (inactive),30 µM (inactive)
Cc1cc2c(C)n(Cc3ccc(Cl)cc3Cl)nc2c(C(=O)O)c1C,> 100 µM (inactive),> 100 µM (inactive),> 100 µM (inactive),> 100 µM (inactive),–,> 100 µM (inactive),–,> 100 µM (inactive),> 100 µM (inactive),42.9 µM (inactive),91.2 µM,> 100 µM (inactive),> 100 µM (inactive),–,> 100 µM (inactive),> 100 µM (inactive)
